Source: US20110046079A1, “Use of Proton Pump Inhibitors as Drug Delivery Adjuvants” (priority 2008, published 2011)
Values joined by “and” are separate entries in the source; they are usually repeats but may differ in a detail not shown here. Equal entries are not always repeated.

What was measured:
[1] = system: rat gastric corpus mucosa; experiment: Transepithelial flux of 14C-labeled probes (mannitol, sucrose, polyethylene glycol) before and after PPI; details: for Post-Omeorazole transmucosal flux / Pre-Omeorazole transmucosal flux: mean +/- SE, 3 experiments; for Pre-Omeorazole transmucosal flux: before 200 μM omeprazole
Method: In each experiment, one adult male Sprague Dawley rat was sacrificed by decapitation. The stomach was removed, flushed, and stripped of its outer serosal membrane, while being frequently moistened with chilled, unbuffered saline. Two pieces of corpus mucosa were mounted in modified Ussing chambers, with exposed tissue surface area of 1.13 cm^2. Chambers were connected to gas-lift reservoirs, with a fluid volume of 17 mL per hemichamber. The mucosal hemichamber was filled with unbuffered saline (with 17 mM glucose) and kept aerated and perfused with 100% O2 at 37° C. […] Water-jacketed reservoirs maintained chamber saline at 37° C.
KRB was adjusted to a pH of 7.3-7.4.
Unbuffered saline was gassed with 100% O2 and was used to bathe the mucosal side of the gastric mucosa.
Approximately 30 minutes after tissues were mounted in Ussing chambers, dibutyrl cyclic AMP (dB-cAMP) (Sigma, St. Louis, Mo.) was added to the serosal sides of both chambers to a concentration of 1 mM in order to stimulate acid output by the tissue.
Three experiments were performed with each PPI, examining gastric permeability to ^14C-mannitol.
Three experiments were performed at each omeprazole concentration.

[2] = system: rat gastric corpus mucosa; experiment: Transepithelial drug flux studies (3H-digoxin, 14C-phenytoin, mucosal to serosal) before and after omeprazole or DMSO; assay type: in vitro ADME; details: 0.1 mM probe
Method: Sprague Dawley male rats weighing approximately 400 grams were sacrificed by decapitation and the stomach was quickly removed, cut along the greater curvature, and flushed of luminal contents. The serosal membrane was then stripped from the corpus region and two equal sized pieces of corpus mucosa were mounted in two separate Ussing chambers with exposed tissue areas of 1.13 cm^2. Chambers were connected to 15 mL gas-lift reservoirs filled with un-buffered saline aerated with 100% O2 and bicarbonate-buffered saline aerated with 95% O2/5% CO2 on the mucosal and serosal sides, respectively. Saline temperature was held constant at 37° C. by a jacketed water bath surrounding the reservoirs. 30 minutes at 37° C. was allowed for tissue equilibration. In paired experiments, one tissue served as (vehicle) ‘control’, and the other as omeprazole-treated ‘experimental’.
After 30 minutes of tissue equilibration time in Ussing chambers, dibutyrl cyclic AMP (dBcAMP) (Sigma) was added to a final concentration of 1 mM to the serosal fluid chambers to stimulate acid secretion. […] The addition of the isotope marked the beginning of the flux period. 150 μL or 250 μL samples were taken from the serosal fluid compartment (opposite from which the isotope was added) for liquid scintillation counting (LSC). Samples were initially taken at 30 minute intervals for 90 minutes for the ^14C-phenytoin flux or at 15 minute intervals for 75 minutes for the ^3H-digoxin flux to establish the basal permeability rate (ρmoles/min/cm^2) across the tissue. 200 μM omeprazole (Sigma) (in DMSO) was then added to the mucosal and serosal sides of one chamber and an equivalent amount of DMSO (Sigma) was also added to both sides of the control chamber. Another series of serosal fluid samples were taken for LSC at 15 or 30 minute intervals for the remaining 60 minutes of ^3H-digoxin or ^14C-phenytoin flux experiments, respectfully, to determine flux rate of the radiolabeled drugs after omeprazole addition. In all cases of fluid sampling for liquid scintillation counting, an equal amount of fresh buffered saline was added back to the serosal side to prevent hydrostatic gradients from developing across the tissue. The flux of each isotope (ρmole/min/cm^2) was determined by calculating the linear regression slope of the graph of cpm versus time, and converting cpm to picomoles after determining the specific activity of the drug in the mucosal fluid.
To observe if the omeprazole-induced leak allows for permeation of certain small molecule drugs, ^3H-digoxin was added to the mucosal fluid compartment and saline samples were taken at 15 minute intervals from the serosal fluid compartments for a 135-minute flux period. Omeprazole and/or DMSO were added to their respective tissues 75 minutes after the addition of the isotope. Radioactivity present in the serosal fluid compartment was measured as a function of time before and after the addition of omeprazole or DMSO.

healthy controls [3] = experiment: Sucrose permeability test, time course and reversibility of the esomeprazole-induced leak; assay type: in vivo, human; details: for durations with statistically significant elevation of sucrose leak: esomeprazole 40 mg once/day for 1, 2, 3, 5, 7 or 9 days, P<0.05
Method: Healthy controls were recruited without regard to gender or ethnicity, from an age range of 18-80. Their exclusion criteria were no prior gastrointestinal surgery and no current gastrointestinal disease. Because of the nature of the permeability test being used, diabetics and those with renal insufficiency were likewise excluded. Those participating did so only after personally signing an informed consent that was approved prior by the Lankenau Hospital Institutional Review Board. […] An 8 hour overnight urine sample was collected in a container with 5 ml of 10% thymol in isopropanol as antimicrobial preservative. A courier service picked up urine containers at the patient's home and delivered them to the research laboratory. Total urine volume and refractive index were measured and recorded. […] This amount of sucrose equates to the amount of sucrose which leaked from the upper GI lumen. The next study was begun to reduce the (disease) variables that may be at play in working with a GERD population and simultaneously assess the time course with which a PPI leak may establish. As described above, a volunteer group of healthy controls without any active GI disease or prior surgeries was recruited. Volunteers were randomly assigned to duration groups of 1, 2, 3, 5, 7 or 9 days. […] As in FIG. 2, a rising bar indicates greater leak in the second test, a falling bar indicates a lower leak at the second test. […] However the average leak of the second test was greater than the first by the second day and then consistently climbed further out through the nine days. […] The figure gives the average leak of the first (pre esomeprazole) test, the second test and the third (4 day post-esomeprazole) test. Although the second test is statistically different from the first or the third (P<0.01), the third test is not statistically different from the first, evidencing the relative rapid reversibility of the leak phenomenon.

[4] = system: rat gastric corpus mucosa; experiment: Acid secretion (mucosal fluid pH) of dB-cAMP stimulated tissue in Ussing chambers; details: ex vivo addition; 200 μM omeprazole, 200 μM lansoprazole, 100 μM esomeprazole
Method: Water-jacketed reservoirs maintained chamber saline at 37° C.
In order to confirm stimulation of acid secretion by secretagogue addition and to verify the efficacy of the PPI, mucosal fluid compartment pH was recorded at intervals throughout the experiment with a manual electrode (Denver Instruments, Denver, Colo.). Ag/AgCl voltage and current electrodes were used to measure PD (potential difference) and ISC (short circuit current) approximately every five minutes for the duration of the experiment, as previously described (Hameed et al. (2004) Dig. Dis. Sci., 49:1381-1386), using two single-channel current/voltage clamps (McGrath Research and Technology). Ohm's Law was used to calculate transepithelial electrical resistance across the tissue.
Mucosal and serosal saline pH measurements were taken at approximately five minute intervals using a manual electrode (Denver Instruments) to ensure that the tissue was secreting acid. Mucosal pH readings were also taken before and after the addition of omeprazole to document the action of omeprazole on inhibiting acid secretion. Tissue viability was confirmed at the end of each experiment by tissue exposure to 10 mM amiloride in the mucosal fluid compartment in order to inhibit short circuit current.

[5] = system: first-time-presenting GERD patients; experiment: Sucrose permeability test before and at the end of an 8 week course of esomeprazole (NEXIUM); assay type: in vivo, human
Method: Patients with GERD were recruited from a primary care practice, to which they were presenting for the first time with their disease. […] With the exception of their GERD, these patients met the above criteria at the time of their recruitment, and were recruited in a similar manner. […] An 8 hour overnight urine sample was collected in a container with 5 ml of 10% thymol in isopropanol as antimicrobial preservative. A courier service picked up urine containers at the patient's home and delivered them to the research laboratory. Total urine volume and refractive index were measured and recorded. […] This amount of sucrose equates to the amount of sucrose which leaked from the upper GI lumen. The next study posed the question of whether PPI therapy would improve barrier function in the upper GI tract by allowing for reduction of mucosal inflammation and damage ensuing from esophagitis and gastritis. An early hypothesis was that PPI therapy would improve barrier function in the upper GI tract of first-time-presenting GERD patients, by allowing for reduction of mucosal inflammation and damage ensuing from any esophagitis or gastritis. […] As previously mentioned, this was in contrast to an earlier study (Mullin et al. (2006) Dig. Dis. Sci., 51:2326-36) which utilized GERD patients who had been previously diagnosed and under the care of a gastroenterologist. […] A 4 week follow up check was performed on all patients, and all reported significant symptom improvement with mild if any side effects.

healthy controls [6] = experiment: Sucrose leak test before and after five days of omeprazole or famotidine; assay type: in vivo, human
Method: An 8 hour overnight urine sample was collected in a container with 5 ml of 10% thymol in isopropanol as antimicrobial preservative. A courier service picked up urine containers at the patient's home and delivered them to the research laboratory. Total urine volume and refractive index were measured and recorded. […] This amount of sucrose equates to the amount of sucrose which leaked from the upper GI lumen.
H-2 blockers such as PEPCID® (famotidine) also cause a GI leak. The instant study was first performed with 20 subjects, all healthy controls. Randomly 10 were put on PPIs (20 mg of omeprazole), 10 on H-2 blockers (40 mg of famotidine). These amounts are standard for acid suppression therapy. […] They were given doses of these drugs in the morning for five days. A sucrose leak test was done the night of the fifth and last day.
Therefore, a second H-2 blocker study was performed looking at leak in an n=5 group but doing evening doses of famotidine and maintaining the other aspects of the above study, with the post H-2 blocker leak test performed again the night of the 5th dose, but now only with a 4-6 hours after the 5th and final dose.

[7] = 0.1 mM 14C-labeled probe, after 200 μM omeprazole

OC[C@H]1O[C@@](CO)(O[C@H]2O[C@H](CO)[C@@H](O)[C@H](O)[C@H]2O)[C@@H](O)[C@@H]1O [Sucrose]
Post-Omeorazole transmucosal flux [1, 7]: 24.19 +/− 4.67 ρmoles/min/cm^2 | Pre-Omeorazole transmucosal flux ([1]; 0.1 mM 14C-labeled probe): 11.71 +/− 3.39 ρmoles/min/cm^2

OC[C@@H](O)[C@@H](O)[C@H](O)[C@H](O)CO [[D]-Mannitol]
% Increase in Flux [1, 7]: 68.72% and 68.72 +/− 8.32% | Post-Omeorazole transmucosal flux [1, 7]: 37.81 +/− 1.32 ρmoles/min/cm^2 | Pre-Omeorazole transmucosal flux ([1]; 0.1 mM 14C-labeled probe): 22.45 +/− 0.61 ρmoles/min/cm^2 | % Increase in Flux After Omeprazole ([2]; 200 μM omeprazole): 68.7% ± 8.4% | Post-Omeprazole Flux Value ([2]; after 200 μM omeprazole, corrected by TLC): 31.6 ± 3.9 ρmole/min/cm^2 | Pre-Omeprazole Flux Value ([2]; before 200 μM omeprazole, 3 experiments): 21.2 ± 5.3 ρmole/min/cm^2 | % Increase in Flux After DMSO ([2]; vehicle control tissue): 23.0% ± 15.3% | Post-DMSO Flux Value ([2]; vehicle control tissue, corrected by TLC): 27.2 ± 2.4 ρmole/min/cm^2 | Pre-DMSO Flux Value ([2]; vehicle control tissue, mean ± SEM, 3 experiments): 22.7 ± 3.3 ρmole/min/cm^2

COc1ccc2nc([S@@+]([O-])Cc3ncc(C)c(OC)c3C)[nH]c2c1 [esomeprazole]
sucrose leak in third test (reversibility) (healthy controls [3]; 4 days after finishing 5, 7 or 9 day esomeprazole course, n=9): decreases to near baseline | leak in second test greater than first (pre esomeprazole) test, average (healthy controls [3]; day 9 of esomeprazole 40 mg once/day): ~400 mg | durations with statistically significant elevation of sucrose leak (healthy controls [3]): fifth day | durations with statistically significant elevation of sucrose leak (healthy controls [3]; listed as NEXIUM®): 5, 7 and 9 day durations | % Increase in Flux of 14C-[D]-mannitol ([1]; 100 μM PPI): 101.62% | % Increase in Flux of 14C-[D]-mannitol ([1]; 100 μM PPI, listed as Esomeprazole): 101.62 +/− 10.04% | effect on acid secretion (rate of mucosal acidification) [4]: inhibited acid secretion | average initial sucrose leak ([5]; before esomeprazole, 26 patients, mean, SEM): 72 mg | average initial leak, all patients ([5]; before esomeprazole, all 37 patients): 179 mg | patients whose post-NEXIUM sucrose leak was smaller ([5]; end of 8 week course vs before): 4 of 25 | patients whose post-NEXIUM sucrose leak was greater ([5]; end of 8 week course vs before, total sucrose in overnight urine): 21 of 26 | patients with increased leak above the 200 mg threshold level ([5]; end of 8 week esomeprazole 40 mg/day): 14 of 21 | mean final sucrose leak ([5]; end of 8 week esomeprazole 40 mg/day, 26 patients, mean, SEM): 325 mg | final leak, all patients ([5]; end of 8 week esomeprazole 40 mg/day, all 37 patients): 307 mg

NC(N)=Nc1nc(CSCCC(N)=NS(N)(=O)=O)cs1 [famotidine]
pre-med sucrose leak (healthy controls [6]; baseline before medication, n=10 per group, SEM): 50 mg | pre H-2 blocker leak, second study (healthy controls [6]; baseline, n=5, SEM): 46 mg | post H-2 blocker leak, second study (healthy controls [6]; evening doses of famotidine, test 4-6 hours after 5th dose, n=5, P=0.03): 132 mg | post med sucrose leak (healthy controls [6]; morning doses for five days (20 mg omeprazole or 40 mg famotidine), test night of fifth day, n=10): 110 mg

Cc1c(OCC(F)(F)F)ccnc1C[S+]([O-])c1nc2ccccc2[nH]1 (centres unmarked) [lansoprazole, 2-(((3-methyl-4-(2,2,2-trifluoro-ethoxy)-2-pyridinyl)methyl)sulfinyl)-1H benzimidazole]
% Increase in Flux of 14C-[D]-mannitol ([1]; 200 μM PPI): 83.35% | % Increase in Flux of 14C-[D]-mannitol ([1]; 200 μM PPI, listed as Lansoprazole): 83.35 +/− 20.71% | effect on acid secretion (rate of mucosal acidification) [4]: inhibited acid secretion
